Source: a compilation of properties of binary mixtures (doi:10.1021/jp3100377)

Experiment: xn = mol fraction of the nth substance listed
Details: 100 kPa

CC(=O)[O-].CC[n+]1ccn(C)c1 + O
viscosity [mPa·s]
Details | 293.15 K | 303.15 K | 313.15 K | 323.15 K | 333.15 K | 343.15 K | 353.15 K
x2 = 0 | 203 | 104.8 | 61.1 | 38.9 | 26.56 | 19.01 | 14.24
x2 = 0.2088 | – | 77.9 | – | – | 20.8 | – | –
x2 = 0.4 | 88.6 | – | – | 23.04 | 16.47 | – | 9.27
x2 = 0.6014 | 51.8 | 32.6 | 21.88 | 15.4 | 11.09 | 8.39 | –
x2 = 0.8023 | 20.45 | 13.51 | 9.41 | 6.6 | 4.95 | – | 3.021
